# Reference: ChEMBL document CHEMBL3885881, “DrugMatrix”
# Several values for one entry are separate records, joined by “and”; a condition that tells them apart may be missing. Identical values can stand only once.
# Species on record: Rattus norvegicus
# Test: DrugMatrix - Regimen: Daily Repeat
# Type: toxicity, organism-based, Sprague-Dawley
# Set-up: regimen Daily Repeat, gender Male, age 6-8 weeks
# Settings: in vivo, sc, 0 mg/kg, route mini-PUMP - SUBCUTANEOUS, dose level Control, vehicle 100 % SALINE; for ALBUMIN / ALKALINE PHOSPHATASE / ASPARTATE AMINOTRANSFERASE / BLOOD UREA NITROGEN / CARBON DIOXIDE / CHOLESTEROL / CREATINE PHOSPHOKINASE / CREATININE / GLUCOSE / LACTATE DEHYDROGENASE / PHOSPHORUS / POTASSIUM / SODIUM / TOTAL BILIRUBIN / URIC ACID: tissue Plasma
# [1] = 120 h, tissue Blood, time 5 day
compound,measurement,setting,value
CC[C@H](C)[C@H](NC(=O)[C@H](Cc1ccc(O)cc1)NC(=O)[C@@H](NC(=O)[C@H](CCCNC(=N)N)NC(=O)[C@@H](N)CC(=O)O)C(C)C)C(=O)N[C@@H](Cc1cnc[nH]1)C(=O)N1CCC[C@H]1C(=O)N[C@@H](Cc1ccccc1)C(=O)O [ANGIOTENSIN II],ABSOLUTE MONOCYTE,"72 h, tissue Blood, time 3 day",230 cells/µL and 354 CELLS/uL
same,ABSOLUTE SEGMENTED NEUTROPHIL,"72 h, tissue Blood, time 3 day",1658.33 CELLS/uL
same,BASOPHIL,"72 h, tissue Blood, time 3 day",0.3% and 0%
same,EOSINOPHIL,"72 h, tissue Blood, time 3 day",0.43% and 0.5%
same,ERYTHROCYTE COUNT,"72 h, tissue Blood, time 3 day",6.91 x10E6/uL and 6.27 x10E6/uL
same,HEMATOCRIT,"72 h, tissue Blood, time 3 day",45.43% and 36.95%
same,HEMOGLOBIN,"72 h, tissue Blood, time 3 day",14.37 G/DL and 13.4 G/DL
same,LEUKOCYTE COUNT,"72 h, tissue Blood, time 3 day",12.09 x10E3/uL and 16.38 x10E3/uL
same,MEAN CORPUSCULAR HEMOGLOBIN,"72 h, tissue Blood, time 3 day",20.8 pg and 21.42 pg
same,MEAN CORPUSCULAR HEMOGLOBIN CONCENTRATION,"72 h, tissue Blood, time 3 day",31.67 G/DL and 36.27 G/DL
same,MEAN CORPUSCULAR VOLUME,"72 h, tissue Blood, time 3 day",65.83 fL and 59.03 fL
same,MONOCYTE,"72 h, tissue Blood, time 3 day",1.83% and 2%
same,NEUTROPHIL,"72 h, tissue Blood, time 3 day",15.07% and 10.33%
same,NUCLEATED RED BLOOD CELLS,"72 h, tissue Blood, time 3 day",0 /100WBC
same,PLATELET COUNT,"72 h, tissue Blood, time 3 day",1299.67 x10E3/uL and 904.67 x10E3/uL
same,ALBUMIN,"72 h, time 3 day",3.83 G/DL and 3.82 G/DL
same,ALKALINE PHOSPHATASE,"72 h, time 3 day",333.67 u/L and 282.33 u/L
same,ASPARTATE AMINOTRANSFERASE,"72 h, time 3 day",68 u/L and 86.83 u/L
same,BLOOD UREA NITROGEN,"72 h, time 3 day",19.33 mg/dL and 20.17 mg/dL
same,CARBON DIOXIDE,"72 h, time 3 day",43 mmol/L and 34.67 mmol/L
same,CHOLESTEROL,"72 h, time 3 day",84.33 mg/dL and 71.5 mg/dL
same,CREATINE PHOSPHOKINASE,"72 h, time 3 day",334.33 u/L
same,CREATININE,"72 h, time 3 day",0.53 mg/dL and 0.2 mg/dL
same,GLUCOSE,"72 h, time 3 day",156.67 mg/dL and 136.83 mg/dL
same,LACTATE DEHYDROGENASE,"72 h, time 3 day",159 u/L
same,PHOSPHORUS,"72 h, time 3 day",9.8 mg/dL and 10.12 mg/dL
same,POTASSIUM,"72 h, time 3 day",5.93 MEQ/L and 5.92 MEQ/L
same,SODIUM,"72 h, time 3 day",146.33 MEQ/L and 147.8 MEQ/L
same,TOTAL BILIRUBIN,"72 h, time 3 day",0.37 mg/dL and 0.2 mg/dL
same,URIC ACID,"72 h, time 3 day",0.73 mg/dL and 1.4 mg/dL
same,ABSOLUTE SEGMENTED NEUTROPHIL,[1],3216.67 CELLS/uL
same,BASOPHIL,[1],0.2% and 0%
same,EOSINOPHIL,[1],0.33% and 0%
same,ERYTHROCYTE COUNT,[1],6.81 x10E6/uL and 6.11 x10E6/uL
same,HEMATOCRIT,[1],44.33% and 36.22%
same,HEMOGLOBIN,[1],13.77 G/DL and 13.18 G/DL
same,LEUKOCYTE COUNT,[1],11.2 x10E3/uL and 17.8 x10E3/uL
same,MEAN CORPUSCULAR HEMOGLOBIN,[1],20.23 pg and 21.62 pg
same,MEAN CORPUSCULAR HEMOGLOBIN CONCENTRATION,[1],31.03 G/DL and 36.42 G/DL
same,MEAN CORPUSCULAR VOLUME,[1],65.1 fL and 59.37 fL
same,MONOCYTE,[1],2.1% and 1.83%
same,NEUTROPHIL,[1],16.43% and 17.67%
same,NUCLEATED RED BLOOD CELLS,[1],0 /100WBC
same,PLATELET COUNT,[1],1573.33 x10E3/uL and 1311 x10E3/uL
same,ALBUMIN,"120 h, time 5 day",3.87 G/DL and 3.83 G/DL
same,ALKALINE PHOSPHATASE,"120 h, time 5 day",303.67 u/L and 260.33 u/L
same,ASPARTATE AMINOTRANSFERASE,"120 h, time 5 day",72.67 u/L and 76.17 u/L
same,BLOOD UREA NITROGEN,"120 h, time 5 day",17.33 mg/dL and 14.67 mg/dL
same,CARBON DIOXIDE,"120 h, time 5 day",41.33 mmol/L and 31.33 mmol/L
same,CHOLESTEROL,"120 h, time 5 day",74.33 mg/dL and 75 mg/dL
same,CREATINE PHOSPHOKINASE,"120 h, time 5 day",286.67 u/L
same,CREATININE,"120 h, time 5 day",0.47 mg/dL and 0.16 mg/dL
same,GLUCOSE,"120 h, time 5 day",152.33 mg/dL and 152.67 mg/dL
same,LACTATE DEHYDROGENASE,"120 h, time 5 day",147.33 u/L
same,PHOSPHORUS,"120 h, time 5 day",10 mg/dL and 10.97 mg/dL
same,POTASSIUM,"120 h, time 5 day",6.4 MEQ/L and 6 MEQ/L
same,SODIUM,"120 h, time 5 day",146 MEQ/L and 145.52 MEQ/L
same,TOTAL BILIRUBIN,"120 h, time 5 day",0.43 mg/dL and 0.17 mg/dL
same,URIC ACID,"120 h, time 5 day",0.83 mg/dL and 1.27 mg/dL
same,ABSOLUTE SEGMENTED NEUTROPHIL,"[…], tissue Blood, time 14 day",2414 CELLS/uL
same,NUCLEATED RED BLOOD CELLS,"[…], tissue Blood, time 14 day",0.17 /100WBC
same,CREATINE PHOSPHOKINASE,"[…], time 14 day",262 u/L
